{
  "source": "paper PMC5529018",
  "about": "“Discovery of novel brain permeable and G protein-biased beta-1 adrenergic receptor partial agonists for the treatment of neurocognitive disorders” (PLoS ONE, 2017)",
  "key": {"[1]": {"system": "LPS-induced TNFα production in primary microglia", "experiment": "In vitro primary microglia TNFα assay", "type": "cell-based, Sprague Dawley rat", "details": "Rattus norvegicus, 10 μM compound, LPS 10 ng/ml, 4 hrs, ELISA, read-out: inhibition of LPS-induced TNFα production", "from_the_text": "Mixed glial cells were obtained from the cerebral cortex of Sprague Dawley rat pups at postnatal days 1–3. Briefly, neonates were euthanized by decapitation and their brain tissues were collected for cortex isolation. The isolated cortex was then trypsinized, triturated, and placed into tissue culture flasks in DMEM supplemented with 10% fetal bovine serum and 1% Penicillin/Streptomycin. After 10 days in vitro, microglia were harvested by gentle shaking of the growth flask, plated in a 96 well plate at a density of 30,000 cells/well, and incubated at 37°C overnight."}, "[2]": {"experiment": "Microsomal stability assay, mouse", "type": "in vitro ADME", "details": "0.1 uM"}, "[3]": {"experiment": "Cardiovascular studies (heart rate, blood pressure)", "type": "in vivo, Sprague-Dawley rats", "details": "anesthetized rats, 3 mg/kg subcutaneous", "procedure": "A polyethylene catheter (PE50) filled with heparinized saline was then inserted into the tail artery and connected to the blood pressure transducer system. After ensuring the absence of any air bubbles, 5–10 min of baseline systolic and diastolic blood pressure along with heart rate measurements were recorded using LabChart Pro (AD Instruments, CO)."}, "ADRB3": {"target": "ADRB3 (Homo sapiens, UniProt P13945)", "sequence (P13945 whole entry)": "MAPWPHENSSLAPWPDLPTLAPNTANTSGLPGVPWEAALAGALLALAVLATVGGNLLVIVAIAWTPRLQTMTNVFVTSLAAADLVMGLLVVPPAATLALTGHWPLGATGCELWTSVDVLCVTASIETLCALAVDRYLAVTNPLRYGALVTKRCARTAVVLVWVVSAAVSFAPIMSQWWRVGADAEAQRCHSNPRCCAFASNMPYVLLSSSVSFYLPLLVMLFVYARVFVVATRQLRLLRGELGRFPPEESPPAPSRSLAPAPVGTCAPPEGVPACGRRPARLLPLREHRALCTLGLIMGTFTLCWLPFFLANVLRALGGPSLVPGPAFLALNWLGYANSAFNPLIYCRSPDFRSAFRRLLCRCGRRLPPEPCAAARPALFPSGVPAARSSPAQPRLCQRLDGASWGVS", "experiment": "Radioligand binding ADRB3", "details": "S2 Table; hot ligand [3H]CGP12177; read-out: Binding Affinity Ki"}, "ADR - Alpha 1D": {"target": "ADR - Alpha 1D (Homo sapiens, UniProt P25100)", "sequence (P25100 whole entry)": "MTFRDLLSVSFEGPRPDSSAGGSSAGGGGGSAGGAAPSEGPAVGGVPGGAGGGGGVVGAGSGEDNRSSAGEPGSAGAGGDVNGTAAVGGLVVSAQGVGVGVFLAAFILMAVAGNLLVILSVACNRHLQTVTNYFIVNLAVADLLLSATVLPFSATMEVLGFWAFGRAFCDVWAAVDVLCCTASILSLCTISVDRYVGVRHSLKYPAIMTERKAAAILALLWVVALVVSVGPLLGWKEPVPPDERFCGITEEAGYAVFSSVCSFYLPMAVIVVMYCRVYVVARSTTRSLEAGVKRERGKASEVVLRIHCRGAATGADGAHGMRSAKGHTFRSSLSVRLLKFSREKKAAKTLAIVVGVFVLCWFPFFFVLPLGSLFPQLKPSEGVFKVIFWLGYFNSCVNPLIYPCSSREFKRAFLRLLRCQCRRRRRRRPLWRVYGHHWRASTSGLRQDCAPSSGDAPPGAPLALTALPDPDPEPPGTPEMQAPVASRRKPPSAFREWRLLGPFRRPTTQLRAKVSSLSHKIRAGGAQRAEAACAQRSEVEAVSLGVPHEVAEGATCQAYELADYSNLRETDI", "experiment": "Radioligand binding ADR Alpha 1D", "details": "S2 Table; hot ligand [3H] Prazosin; read-out: Binding Affinity Ki"}, "ADR - Alpha 2A": {"target": "ADR - Alpha 2A (Homo sapiens, UniProt P08913)", "sequence (P08913 whole entry)": "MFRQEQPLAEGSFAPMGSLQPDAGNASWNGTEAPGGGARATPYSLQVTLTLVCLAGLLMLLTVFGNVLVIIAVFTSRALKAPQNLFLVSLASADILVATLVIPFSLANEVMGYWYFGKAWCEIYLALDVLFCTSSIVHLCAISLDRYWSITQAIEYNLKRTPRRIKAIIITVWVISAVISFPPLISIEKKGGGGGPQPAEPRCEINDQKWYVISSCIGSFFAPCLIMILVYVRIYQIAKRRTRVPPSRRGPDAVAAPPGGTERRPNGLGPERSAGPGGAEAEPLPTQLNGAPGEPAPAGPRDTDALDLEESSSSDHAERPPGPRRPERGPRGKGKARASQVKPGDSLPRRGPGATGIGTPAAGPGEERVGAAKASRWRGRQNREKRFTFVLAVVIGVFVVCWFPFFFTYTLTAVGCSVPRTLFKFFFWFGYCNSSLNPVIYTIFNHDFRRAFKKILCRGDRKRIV", "experiment": "Radioligand binding ADR Alpha 2A", "details": "S2 Table; hot ligand [3H] Rauwolscine; read-out: Binding Affinity Ki"}, "ADR - Alpha 2C": {"target": "ADR - Alpha 2C (Homo sapiens, UniProt P18825)", "sequence (P18825 whole entry)": "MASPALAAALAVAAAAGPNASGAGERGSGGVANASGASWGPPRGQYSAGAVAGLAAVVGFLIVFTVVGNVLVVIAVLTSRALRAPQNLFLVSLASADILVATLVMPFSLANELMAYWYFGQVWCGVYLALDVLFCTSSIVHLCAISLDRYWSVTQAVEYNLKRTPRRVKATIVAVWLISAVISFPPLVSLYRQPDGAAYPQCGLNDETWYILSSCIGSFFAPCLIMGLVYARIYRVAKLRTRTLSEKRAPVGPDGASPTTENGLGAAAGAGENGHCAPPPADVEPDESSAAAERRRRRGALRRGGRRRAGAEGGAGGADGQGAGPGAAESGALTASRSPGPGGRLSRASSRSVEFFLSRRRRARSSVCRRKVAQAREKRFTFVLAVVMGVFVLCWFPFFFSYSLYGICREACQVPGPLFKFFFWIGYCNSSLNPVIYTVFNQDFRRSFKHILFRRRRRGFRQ", "experiment": "Radioligand binding ADR Alpha 2C", "details": "S2 Table; hot ligand [3H] Rauwolscine; read-out: Binding Affinity Ki"}, "5-HT 1D": {"target": "5-HT 1D (Homo sapiens, UniProt P28221)", "sequence (P28221 whole entry, species assumed)": "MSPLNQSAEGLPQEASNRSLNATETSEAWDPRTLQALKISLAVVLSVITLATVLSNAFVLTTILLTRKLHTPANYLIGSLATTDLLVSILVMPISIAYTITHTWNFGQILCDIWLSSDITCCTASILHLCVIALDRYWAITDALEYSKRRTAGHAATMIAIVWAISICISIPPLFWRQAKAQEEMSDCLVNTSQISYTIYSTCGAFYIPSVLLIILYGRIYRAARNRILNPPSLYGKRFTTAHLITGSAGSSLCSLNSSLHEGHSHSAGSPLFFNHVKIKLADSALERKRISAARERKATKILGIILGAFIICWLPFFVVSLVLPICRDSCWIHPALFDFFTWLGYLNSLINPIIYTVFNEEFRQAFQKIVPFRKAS", "experiment": "Radioligand binding 5-HT 1D", "details": "S2 Table; hot ligand [3H]GR125743; read-out: Binding Affinity Ki"}, "[4]": {"system": "PBR (peripheral benzodiazepine receptor)", "experiment": "Radioligand binding PBR", "details": "S2 Table; hot ligand [3H]PK11195"}, "Sigma 2 receptor": {"target": "Sigma 2 receptor (Homo sapiens, UniProt Q5BJF2)", "sequence (Q5BJF2 whole entry, species assumed)": "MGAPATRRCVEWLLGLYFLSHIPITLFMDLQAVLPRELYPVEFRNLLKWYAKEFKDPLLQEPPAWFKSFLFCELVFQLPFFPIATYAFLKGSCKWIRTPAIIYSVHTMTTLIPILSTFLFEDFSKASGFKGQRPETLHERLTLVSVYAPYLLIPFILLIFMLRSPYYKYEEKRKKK", "experiment": "Radioligand binding Sigma 2 receptor", "details": "S2 Table; hot ligand [3H]DTG; read-out: Binding Affinity Ki"}},
  "data": [
    {"smiles": "COc1ccccc1OCCNC[C@H](O)COc1ccc(O)cc1.COc1ccccc1OCCNC[C@H](O)COc1ccc(O)cc1.O=C(O)/C=C/C(=O)O", "note": "[STD-101-D1, (S)-4-(2-hydroxy-3-((2-(2-methoxyphenoxy)ethyl)amino)propoxy)phenol hemifumarate]", "values": [
      {"measurement": "inhibition at 10 µM", "setting": "[1]", "result": "~50", "unit": "%"},
      {"measurement": "compound remaining after 60 min, mouse liver microsomes", "setting": "[2]", "result": 62.8, "unit": "%"},
      {"measurement": "decrease in blood pressure", "setting": "[3]", "result": 46, "unit": "%"},
      {"measurement": "increase in heart rate", "setting": "[3]", "result": 13, "unit": "%"},
      {"measurement": "Ki", "setting": "ADRB3", "result": 485, "unit": "nM"},
      {"measurement": "Ki", "setting": "ADR - Alpha 1D", "result": 25, "unit": "nM"},
      {"measurement": "Ki", "setting": "ADR - Alpha 2A", "result": 1170, "unit": "nM"},
      {"measurement": "Ki", "setting": "ADR - Alpha 2C", "result": 108, "unit": "nM"},
      {"measurement": "Ki", "setting": "5-HT 1D", "result": 149, "unit": "nM"},
      {"measurement": "Binding Affinity Ki", "setting": "[4]", "result": "- (< 50% inhibition of radioligand binding at 10 μM STD-101-D1)"},
      {"measurement": "Ki", "setting": "Sigma 2 receptor", "result": 236, "unit": "nM"}
    ]}
  ]
}
